Legend:
[1] = type: in vivo, rat; conditions: 10 day post MI
Description: Male Wister rats (150-175 g body weight) were used. Left anterior descending artery (LAD)-ligation was performed in all animals. […] All injected solutions contained 9% DMSO. Heart contractility in-vivo was monitored using echocardiography. At the end of the treatment period, animals were sacrificed and heart and blood samples were harvested for analysis. Blood samples were also collected (from the eye) at baseline and 24 hours post myocardial infarction (MI).
Blood samples were collected from rat eye at baseline and at 24 hrs. Post LAD-ligation. The plasmas of 11 animals were tested for the indicated biomarkers of MI.

[2] = tested on: Akt; test: Akt phosphorylation in adult zebrafish heart (Western blot); type: in vivo; conditions: wt adult zebrafish, 1 μM in swimming media, 5 minutes
Description: (§1) Adult zebrafish (˜12-months-old) were transferred to swimming medium containing 1 μM of CS drugs, as specified in the following examples. At various time points (5-30 min), as indicated in the following examples, the zebrafish were transferred to perfusion buffer and the hearts were immediately removed and transferred to RIPA lysis buffer (Sigma-Aldrich), and protease inhibitor cocktail (P8340, Sigma-Aldrich), at a 1:100 dilution). The tissue was homogenized in an ultrasonic homogenizer (Microson, NY, USA) and aliquots of the homogenate were stored at −70° C. until used.
Protein dilution and separation on SDS-PAGE electrophoresis, their transfer to a polyvinylidene fluoride membrane were carried out. The membranes were incubated for 1 hour at room temperature with one of the specific antibodies against Phospho-p44/42 MAPK (Erk1/2) (Thr202/Tyr204), Rabbit mAb #4370 (Cell signaling) or Phospho-Akt (Ser473) (193H12), Rabbit mAb #4058 (Cell signaling), at a 1:1000 dilution in TBS containing 0.1% Tween. The membranes were washed with TBS containing 0.1% Tween and exposed to horseradish peroxidase-conjugated secondary goat anti-rabbit IgG antibody (1:50,000). The membranes were stripped prior to their exposure to a different antibody. Detection was carried out with the aid of a Luminata™ Crescendo Western HRP Substrates, according to the manufacturer's instructions.

[3] = tested on: zebrafish accordion mutant (acc) larvae heart; test: In-vivo heart contractility measurements in zebrafish acc mutant larvae; parameters: species or system zebrafish (Danio rerio); conditions: 1 nM, 90 minutes
Description: Ouabain, bufalin, digoxin, acetylcholine, carbachol, […] (pp2) and U0126 (1,4-diamino-2,3-dicyano-1,4-bis(2-aminophenylthio)butadiene) were purchased from Sigma-Aldrich Inc., Israel. The compounds were dissolved in egg water (0.3 g Instant Ocean Salt in distilled water) to a final selected concentration, as specified in the following examples. The larvae in 20 μL of E3 medium were transferred to the egg water solution containing one or two of the above specified drugs of choice, and incubated for 60-90 minutes at 28° C.
Filming process Zebrafish larvae heart imaging was performed using an Olympus CKX41 (Japan) […] microscope with ×10 or ×20 magnification, and integrated incandescent illumination. A FastCam imi-tech (Korea) high speed digital camera with 640×480 pixel gray scale image sensor was mounted on the microscope, using ImCam software (IMI Technology, Co. Ltd) for high speed video recording. The larvae were anesthetized by placing them in filming/anesthetizing medium. Each larva in 0.5 ml filming/anesthetizing medium was transferred to a 96-well tissue culture plate at room temperature and sequential images of the heart were obtained, with the larvae positioned on their side, at 80 fps during 10 seconds with a shutter speed of 0.016 seconds.
Physiological parameters of cardiovascular performance, as indicated hereinbelow, were evaluated in the zebrafish larvae. […] Sequential still frames were analyzed to capture ventricular end-systole and end-diastole images. […] The Ejection Fraction (EF) was determined by an independent estimate of ventricular volume. […] EF was then calculated according to the equation: EF=(EDV-ESV)/EDV*100. Heart rate (HR) was measured in beats per minute. Cardiac output (CO) was calculated according to the equation: CO=(EDV-ESV)*HR. A minimum of five sequential pairs of systolic and diastolic cycles were measured and analyzed in 9-12 larvae for each treatment.

[4] = tested on: ERK; test: ERK phosphorylation in adult zebrafish heart (Western blot); type: in vivo; conditions: wt adult zebrafish, 1 μM in swimming media, 5 minutes
Description: as §1
Protein dilution and separation on SDS-PAGE electrophoresis, their transfer to a polyvinylidene fluoride membrane were carried out. […] The membranes were washed with TBS containing 0.1% Tween and exposed to horseradish peroxidase-conjugated secondary goat anti-rabbit IgG antibody (1:50,000). The membranes were stripped prior to their exposure to a different antibody. Detection was carried out with the aid of a Luminata™ Crescendo Western HRP Substrates, according to the manufacturer's instructions.

**Q.** For `NC1(c2ccc(-c3nc4ccn5c(=O)[nH]nc5c4cc3-c3ccccc3)cc2)CCC1` [MK-2206], which CPK [1] is on record?
**A.** The CPK was 363.5 ± 88.59 unit/L.

**Q.** And the Trop-T [1]?
**A.** The Trop-T was 0.07 ± 0.06 ng/mL.

**Q.** For `C[C@@H]1O[C@@H](O[C@H]2C[C@@H](O)[C@]3(CO)[C@H]4[C@H](O)C[C@]5(C)[C@@H](C6=CC(=O)OC6)CC[C@]5(O)[C@@H]4CC[C@]3(O)C2)[C@H](O)[C@H](O)[C@H]1O` [ouabain, 3-(alpha-L-Rhamnopyranosyloxy)-1beta,5beta,11alpha,14,19-pentahydroxy-5beta-card-20(22)-enolide], which “increase in Akt phosphorylation in the heart” value [2] is on record?
**A.** Its value is 100±20.06%.

**Q.** And the “effect on heart contractility” value [3]?
**A.** The value was “no effect on heart contractility”.

**Q.** What about the “increase in ERK phosphorylation in the heart” value [4] of the same compound?
**A.** The value was 130±17.95%.

**Q.** What about the CPK [1] of the same compound?
**A.** Its CPK is 616.6 ± 197.6 unit/L.

**Q.** And the Trop-T [1]?
**A.** The Trop-T was 0.24 ± 0.17 ng/mL.

Reference: patent publication US20180369264A1, “COMBINATION OF A CARDIAC STEROID AND AN AKT INHIBITOR FOR THE TREATMENT OF CARDIOVASCULAR DISEASES AND DISORDERS” (YISSUM RESEARCH DEVELOPMENT COMPANY OF THE HEBREW …, priority 2015, published 2018)
